# Results as given in patent publication US8846704B2, “Thiopyrimidine-based compounds and uses thereof” (YM Biosciences Austraila Pty Ltd, priority 2007, dated 2014).
# Target: T1, BaF3 TELJAK3 cells (Homo sapiens, UniProt P52333)
# T1 construct: fused on or other part: TEL (ETV6) N-terminal part, coding nucleotides 1-487, serves as the oligomerising partner; It is fused through a Sal I site to the JAK3 kinase domain and expressed from pTRE2 in BaF3 cells bearing pTET-off; P41212 (Transcription factor ETV6)
# T1 sequence (P52333 1-1124): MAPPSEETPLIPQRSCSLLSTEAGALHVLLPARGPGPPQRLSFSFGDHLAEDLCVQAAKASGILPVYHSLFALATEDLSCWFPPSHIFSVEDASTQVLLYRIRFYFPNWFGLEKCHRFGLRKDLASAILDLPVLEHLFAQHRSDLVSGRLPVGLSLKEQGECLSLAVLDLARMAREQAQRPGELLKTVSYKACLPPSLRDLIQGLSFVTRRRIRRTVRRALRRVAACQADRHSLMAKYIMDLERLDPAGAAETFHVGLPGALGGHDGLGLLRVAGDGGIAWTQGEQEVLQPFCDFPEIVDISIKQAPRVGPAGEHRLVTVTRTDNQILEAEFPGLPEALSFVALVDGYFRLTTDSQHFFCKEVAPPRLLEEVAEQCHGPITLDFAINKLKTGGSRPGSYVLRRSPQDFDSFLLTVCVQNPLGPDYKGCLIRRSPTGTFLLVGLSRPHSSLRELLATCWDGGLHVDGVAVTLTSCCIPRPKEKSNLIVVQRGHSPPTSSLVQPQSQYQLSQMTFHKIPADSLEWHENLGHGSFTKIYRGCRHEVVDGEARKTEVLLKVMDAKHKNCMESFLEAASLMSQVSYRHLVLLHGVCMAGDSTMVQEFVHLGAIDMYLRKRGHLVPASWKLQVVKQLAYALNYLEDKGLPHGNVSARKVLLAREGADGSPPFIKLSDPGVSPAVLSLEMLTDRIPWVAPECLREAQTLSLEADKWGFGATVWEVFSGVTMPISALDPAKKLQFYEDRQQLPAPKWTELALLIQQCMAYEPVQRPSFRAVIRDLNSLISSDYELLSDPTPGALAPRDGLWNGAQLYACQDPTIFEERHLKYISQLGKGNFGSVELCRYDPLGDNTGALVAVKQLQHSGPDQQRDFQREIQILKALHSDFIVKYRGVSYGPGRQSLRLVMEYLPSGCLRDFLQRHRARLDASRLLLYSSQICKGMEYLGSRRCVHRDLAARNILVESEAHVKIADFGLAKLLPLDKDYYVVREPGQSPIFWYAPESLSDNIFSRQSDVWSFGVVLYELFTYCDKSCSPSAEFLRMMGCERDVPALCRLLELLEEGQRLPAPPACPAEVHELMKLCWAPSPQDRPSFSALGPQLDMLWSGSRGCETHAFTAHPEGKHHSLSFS
# Assay: Cellular screening, BaF3 TEL:JAK3 cells, Alamar Blue
# Assay type: cell-based
# Settings: 40 hr, read-out: BafT_J3 IC50_nM
# Method in brief: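 BaF3 cells carrying pTET-off and a TEL–JAK3 kinase-domain fusion, selected for growth-factor independence, were grown in DMEM with 10% Tet-approved FBS without WEHI 3B medium. Cells were exposed to compounds for 40 h at 37 °C, 5% CO2. Viability was read with Alamar Blue (4–6 h) at 544 nm.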
row,Compound,GI50
1,"O=C(Nc1ccc(Sc2ccnc(Nc3ccc(N4CCOCC4)cc3)n2)cc1)C1CC1(F)Cl (stereo not drawn) [Compound 378, 2-chloro-2-fluoro-N-(4-(2-(4-morpholinophenylao)pyrimidin-4-ylthio)phenyl)cyclopropanecarboxamide]",< 1 µM
2,"C=CC(=O)Nc1ccc(Sc2ccnc(Nc3ccc(C(=O)OC)cc3)n2)cc1 [Compound 357, methyl 4-(4-(4-acrylamidophenylthio)pyrimidin-2-ylao)benzoate]",< 5 µM
3,"Cc1cnc(Nc2ccc(N3CCOCC3)cc2)nc1Sc1ccc(N2C(=O)C=CC2=O)cc1 [Compound 390, 1-(4-(5-methyl-2-(4-morpholinophenylao)pyrimidin-4-ylthio)phenyl)-1H-pyrrole-2,5-dione]",< 5 µM
4,"Cc1cnc(Nc2ccc(N3CCOCC3)cc2)nc1Sc1ccc(N2C(=O)CCC2=O)cc1 [Compound 384, 1-(4-(5-methyl-2-(4-morpholinophenylao)pyrimidin-4-ylthio)phenyl)pyrrolidine-2,5-dione]",> 20 µM
5,"CCOC(=O)c1nccn1Cc1ccc(Sc2ccnc(Nc3ccc(N4CCOCC4)cc3)n2)cc1 [Compound 148, ethyl 1-(4-(2-(4-morpholinophenylao)pyrimidin-4-ylthio)benzyl)-1H-imidazole-2-carboxylate]",< 20 µM
6,"CSc1nc(Nc2ccc(N3CCOCC3)cc2)ncc1C [Compound 176, 5-methyl-4-(methylthio)-N-(4-morpholinophenyl)pyrimidin-2-ae]",< 5 µM
7,"C=CC(=O)Nc1ccc(Sc2nc(Nc3ccc(OC)c(O)c3)ncc2C)cc1 [Compound 283, N-(4-(2-(3-hydroxy-4-methoxyphenylao)-5-methylpyrimidin-4-ylthio)phenyl)acrylamide]",< 1 µM
8,"CNC(=O)CCC(=O)Nc1ccc(Sc2nc(Nc3ccc(N4CCOCC4)cc3)ncc2C)cc1 [Compound 386, N1-methyl-N4-(4-(5-methyl-2-(4-morpholinophenylao)pyrimidin-4-ylthio)phenyl)succinamide]",> 20 µM
9,"C=CC(=O)Nc1ccc(Sc2nc(Nc3cccc(O)c3)ncc2C)cc1 [Compound 281, N-(4-(2-(3-hydroxyphenylao)-5-methylpyrimidin-4-ylthio)phenyl)acrylamide]",< 1 µM
10,"C=CC(=O)Nc1ccc(Sc2ccnc(Nc3cccc(C#N)c3)n2)cc1 [Compound 118, N-(4-(2-(3-cyanophenylao)pyrimidin-4-ylthio)phenyl)acrylamide]",< 5 µM
11,"CC#CC(=O)Nc1ccc(Sc2nc(Nc3ccc(N4CCOCC4)cc3)ncc2C)cc1 [Compound 125, N-(4-(5-methyl-2-(4-morpholinophenylao)pyrimidin-4-ylthio)phenyl)but-2-ynamide]",< 5 µM
12,"N#CCC(=O)Nc1ccc(Sc2ccnc(Nc3ccc(N4CCC(N5CCCC5)CC4)cc3)n2)cc1 [Compound 88, 2-cyano-N-(4-(2-(4-(4-(pyrrolidin-1-yl)piperidin-1-yl)phenylao)pyrimidin-4-ylthio)phenyl)acetamide]",< 5 µM
13,"C=CC(=O)Nc1ccc(Sc2ccnc(Nc3cccc(C(=O)OC)c3)n2)cc1 [Compound 356, methyl 3-(4-(4-acrylamidophenylthio)pyrimidin-2-ylao)benzoate]",< 5 µM
14,"C=CC(=O)Nc1ccc(Sc2nc(Nc3cccc(OCCCO)c3)ncc2C)cc1 [Compound 301, N-(4-(2-(3-(3-hydroxypropoxy)phenylao)-5-methylpyrimidin-4-ylthio)phenyl)acrylamide]",< 1 µM
15,"C=CC(=O)Nc1ccc(Sc2ccnc(Nc3ccc(S(=O)(=O)N4CCOCC4)c(OC)c3)n2)cc1 [Compound 373, N-(4-(2-(3-methoxy-4-(morpholinosulfonyl)phenylao)pyrimidin-4-ylthio)phenyl)acrylamide]",< 5 µM
16,"C=CC(=O)Nc1ccc(Sc2ccnc(Nc3ccc(N4CCS(=O)(=O)CC4)cc3)n2)cc1 [Compound 99, N-{4-[(2-{[4-(1,1-dioxo-1λ^6,4-thiomorpholin-4-yl)phenyl]ao}pyrimidin-4-yl)sulfanyl]phenyl}prop-2-enamide]",< 1 µM
17,"C=CC(=O)Nc1ccc(Sc2ccnc(Nc3ccccc3)n2)cc1 [Compound 350, N-(4-(2-(phenylao)pyrimidin-4-ylthio)phenyl)acrylamide]",< 20 µM

row,Compound,GI50
1,"Cc1cnc(Nc2ccc(N3CCOCC3)cc2)nc1Sc1ccc(NC(=O)COCC(=O)O)cc1 [Compound 188, 2-(2-(4-(5-methyl-2-(4-morpholinophenylao)pyrimidin-4-ylthio)phenylao)-2-oxoethoxy)acetic acid]",> 20 µM
2,"C=CC(=O)Nc1ccc(Sc2ccnc(Nc3cccc(S(=O)(=O)NCc4ccccc4)c3)n2)cc1 [Compound 366, N-(4-(2-(3-(N-benzylsulfamoyl)phenylao)pyrimidin-4-ylthio)phenyl)acrylamide]",< 5 µM
3,"C=CC(=O)Nc1ccc(Sc2ccnc(Nc3ccc(S(=O)(=O)N4CCN(C)CC4)cc3)n2)cc1 [Compound 370, N-(4-(2-(4-(4-methylpiperazin-1-ylsulfonyl)phenylao)pyrimidin-4-ylthio)phenyl)acrylamide]",< 5 µM
4,"Cc1cnc(Nc2ccc(N3CCOCC3)cc2)nc1Sc1ccc(C#N)cc1 [Compound 136, 4-(5-methyl-2-(4-morpholinophenylao)pyrimidin-4-ylthio)benzonitrile]",> 20 µM
5,"COc1ccc(Nc2nccc(Sc3ccc(NC(=O)CC#N)cc3)n2)cc1OC [Compound 101, 2-cyano-N-(4-(2-(3,4-dimethoxyphenylao)pyrimidin-4-ylthio)phenyl)acetamide]",< 1 µM
6,"C=CC(=O)Nc1ccc(Sc2nc(Nc3ccc(CNS(C)(=O)=O)cc3)ncc2C)cc1 [Compound 294, N-(4-(5-methyl-2-(4-(methylsulfonamidomethyl)phenylao)pyrimidin-4-ylthio)phenyl)acrylamide]",< 1 µM
7,"Nc1ccc(Sc2nc(Nc3ccc(N4CCOCC4)cc3)ncc2Cl)cc1 [Compound 318, 4-(4-aophenylthio)-5-chloro-N-(4-morpholinophenyl)pyrimidin-2-ae]",> 20 µM
8,"C=C(CN1CCOCC1)C(=O)Nc1cccc(Sc2ccnc(Nc3ccc(N4CCOCC4)cc3)n2)c1 [Compound 328, 2-(morpholinomethyl)-N-(3-(2-(4-morpholinophenylao)pyrimidin-4-ylthio)phenyl)acrylamide]",< 5 µM
9,"C=CC(=O)Nc1ccc(Sc2ccnc(Nc3ccc(S(=O)(=O)N4CCOCC4)cc3)n2)cc1 [Compound 367, N-(4-(2-(4-(morpholinosulfonyl)phenylao)pyrimidin-4-ylthio)phenyl)acrylamide]",< 5 µM
10,"C=CC(=O)Nc1ccc(Sc2ccnc(Nc3ccc(S(N)(=O)=O)cc3)n2)cc1 [Compound 352, N-(4-(2-(4-sulfamoylphenylao)pyrimidin-4-ylthio)phenyl)acrylamide]",< 20 µM
11,"C=CC(=O)Nc1ccc(Sc2nc(Nc3ccc(N4CCS(=O)(=O)CC4)cc3)ncc2C)cc1 [Compound 298, N-{4-[(2-{[4-(1,1-dioxo-1λ^6,4-thiomorpholin-4-yl)phenyl]ao}-5-methylpyrimidin-4-yl)sulfanyl]phenyl}prop-2-enamide]",< 1 µM
12,"C=CC(=O)Nc1ccc(Sc2ccnc(Nc3cccc(S(=O)(=O)N4CCN(C)CC4)c3)n2)cc1 [Compound 365, N-(4-(2-(3-(4-methylpiperazin-1-ylsulfonyl)phenylao)pyrimidin-4-ylthio)phenyl)acrylamide]",< 5 µM
13,"C=CC(=O)Nc1cccc(Nc2nccc(Sc3cccc(OC)c3)n2)c1 [Compound 31, N-(3-(4-(3-methoxyphenylthio)pyrimidin-2-ylao)phenyl)acrylamide]",< 1 µM
14,"COc1cc(Nc2nccc(Sc3ccc(NCC#N)cc3)n2)cc(OC)c1OC [Compound 52, 2-(4-(2-(3,4,5-trimethoxyphenylao)pyrimidin-4-ylthio)phenylao)acetonitrile]",< 5 µM
15,"O=C(CCl)Nc1cccc(Sc2ccnc(Nc3ccc(N4CCOCC4)cc3)n2)c1 [Compound 332, 2-chloro-N-(3-(2-(4-morpholinophenylao)pyrimidin-4-ylthio)phenyl)acetamide]",< 1 µM
16,"O=C(/C=C/Cl)Nc1ccc(Sc2ccnc(Nc3ccc(N4CCOCC4)cc3)n2)cc1 [Compound 342, (E)-3-chloro-N-(4-(2-(4-morpholinophenylao)pyrimidin-4-ylthio)phenyl)acrylamide]",< 5 µM
